In PubChem BioAssay (NCI):
Values joined by “and” are separate entries in the source; they are usually repeats but may differ in a detail not shown here. Equal values may be shown once.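 Cells were grown in 96-well plates and exposed to each compound for 48 hours at five concentrations; endpoints were interpolated linearly between bracketing concentrations, or set to the highest concentration if not reached. Here, GI50 denotes the concentration required for 50% inhibition of growth. TGI is the concentration that stops growth completely.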

What follows are compounds tested on NCI/ADR-RES ovarian (assay: NCI-60 cell line screen, 48 h).
Compound `CC1(C)C(=O)/C(=C\c2cccnc2)C[C@]2(C)[C@H]3CC[C@@H]4[C@H]5[C@H](C(=O)/C=C/c6cccnc6)CC[C@]5(C(=O)O)CC[C@@]4(C)[C@]3(C)CC[C@@H]12` has a GI50 of 3.08 µM and a TGI greater than 100 µM. With `COc1cc2ncnc(-n3ncc4cc(NC(=O)Nc5ccccc5)ccc43)c2cc1OC` the GI50 was 2.52 µM and the TGI was 17.6 µM. `COc1ccc(C(=O)c2cc(OC)c(OC)c(OC)c2)cc1/C=C/C(=O)c1ccc(F)cc1` was tested, and the GI50 was 3.69 µM and the TGI was 73.2 µM. For `OCC1OC(n2cnc3c2NC=NC[C@H]3O)C(Cl)C1O` (some centres undefined), the TGI was greater than 100 µM. In the case of `COc1ccc(C2=C(Cl)c3cc(OC)c(OC)cc3C2Cl)cc1` (centres undefined), the TGI is reported as 33.3 µM. In the case of `COc1ccc(-c2[nH]c3ccc(OC)cc3c2/C=C(\C#N)S(=O)(=O)c2ccccc2)cc1`, the GI50 is reported as 0.479 µM and the TGI is reported as 9.22 µM. Compound `O=c1cc(NCC(O)CN2CCCC2)n(Cc2ccccc2)c(=O)n1Cc1ccccc1` (centres undefined) has a GI50 greater than 100 µM and a TGI greater than 100 µM. `c1ccc(Sc2ccc(Cc3nc4cc5ccccc5cc4[nH]3)cc2)cc1` showed a GI50 of 15.5 µM and a TGI greater than 62.7 µM. For `CCc1nc2cc(F)c(/C=C/C(=O)NO)cc2c(=O)n1CCc1ccccc1`, the GI50 was 0.284 µM and the TGI was 0.982 µM. For `C/C(=N\Nc1ccc(Cl)cn1)c1ccc2ccccc2n1`, the GI50 was 2.16 µM and the TGI was greater than 100 µM. For `CC1=C(/C=C/Cl)CC(Cl)C(C)(Cl)C1` (centres undefined), the TGI was greater than 100 µM. `C=C1C(=O)O[C@H]2[C@H]1CC/C(COC(=O)NCCCCNC(=O)OC/C1=C/CC[C@@]3(C)O[C@H]3[C@H]3OC(=O)C(=C)[C@@H]3CC1)=C\CC[C@@]1(C)O[C@@H]21` showed a GI50 of 37.7 µM and a TGI greater than 100 µM. In the case of `COc1ccc(C[N+](C)(C)N)cc1OC`, the GI50 is reported as greater than 100 µM and the TGI is reported as greater than 100 µM. Compound `NS(=O)(=O)c1ccc(-c2ccc3c(NC(=O)C4CC4)n[nH]c3c2)cc1` has a GI50 greater than 25 µM and a TGI greater than 25 µM. Compound `C=CCCCCC/C=C\[C@@H](O)C#CC#C/C=C/CO` has a GI50 greater than 100 µM and a TGI greater than 100 µM. Work on `Cc1cc(C(=O)Nc2ccc3cc(CN4CCOCC4)ccc3n2)c(C)n1-c1ccccc1` yielded a GI50 of 1 µM and a TGI of 4.69 µM. `CCCCCCCCCCCCCCCC(=O)OCC(C[As](=O)(O)O)OC(=O)CCCCCCCCCCCCCCC` (centres undefined) showed a TGI greater than 100 µM. Compound `COc1ccc(C(=O)c2cc(C)c(OC)c(C)c2)cc1OC(=O)CCl` has a GI50 of less than 0.01 µM and a TGI greater than 63.5 µM. For `NC(=O)c1cc(Cl)ccc1NC(=O)/C=C/c1ccccc1`, the GI50 was 2.63 µM and the TGI was greater than 26.9 µM. For `O=C1/C(=C(/c2ccccc2)N2CCOCC2)Cc2ccccc21`, the GI50 was 4.68 µM and the TGI was 21.4 µM. For `CC1=CC(=O)C=CC1=O`, the GI50 was 20.6 µM and 24 µM and the TGI was 43 µM and 64.4 µM. In the case of `CCCC(CCC)NCC(O)c1cc(-c2ccc(C(F)(F)F)cc2)nc(C(F)(F)F)c1` (centres undefined), the GI50 is reported as 1.63 µM and the TGI is reported as 3.25 µM. In the case of `Cc1cc(C)c(NC(=O)c2sc3nc4c(cc3c2N)C(=O)CCC4)c(C)c1`, the GI50 is reported as 2.08 µM and the TGI is reported as 6.45 µM. `CN(C)CCNc1ccc(CO)c2oc3ccc(O)cc3c(=O)c12` gave a TGI of 74.3 µM. `Cc1ccc(NC(=O)c2cccc(C(C)(C)C#N)c2)cc1Nc1ccc2ncn(C)c(=O)c2c1` showed a GI50 of 4.12 µM and a TGI greater than 100 µM. With `Cc1cc2ncnn2cc1Nc1ncc2c(n1)n(C1CCOCC1)c(=O)n2C` the GI50 was 19.9 µM and the TGI was greater than 100 µM. `COc1cc(Cc2nccc3cc(OC)c(OC)cc23)c(C(C)=O)cc1OC` gave a TGI greater than 300 µM.

The compounds below were run on HL-60(TB) leukemia (assay: NCI-60 cell line screen, 48 h).
In the case of `CC1(C)C(=O)/C(=C\c2cccnc2)C[C@]2(C)[C@H]3CC[C@@H]4[C@H]5[C@H](C(=O)/C=C/c6cccnc6)CC[C@]5(C(=O)O)CC[C@@]4(C)[C@]3(C)CC[C@@H]12`, the GI50 is reported as 1.95 µM and the TGI is reported as 5.27 µM. `COc1cc2ncnc(-n3ncc4cc(NC(=O)Nc5ccccc5)ccc43)c2cc1OC` was tested, and the GI50 was 1.57 µM and the TGI was 4.52 µM. Work on `COc1ccc(C(=O)c2cc(OC)c(OC)c(OC)c2)cc1/C=C/C(=O)c1ccc(F)cc1` yielded a GI50 of 4.8 µM and a TGI greater than 100 µM. Work on `OCC1OC(n2cnc3c2NC=NC[C@H]3O)C(Cl)C1O` (some centres undefined) yielded a TGI greater than 100 µM. `COc1ccc(C2=C(Cl)c3cc(OC)c(OC)cc3C2Cl)cc1` (centres undefined) showed a TGI of 18.1 µM. Work on `COc1ccc(-c2[nH]c3ccc(OC)cc3c2/C=C(\C#N)S(=O)(=O)c2ccccc2)cc1` yielded a GI50 of 0.812 µM. Compound `O=c1cc(NCC(O)CN2CCCC2)n(Cc2ccccc2)c(=O)n1Cc1ccccc1` (centres undefined) has a GI50 of 7.81 µM and a TGI of 30.3 µM.
